Assay results published in PubChem BioAssay (NCI).
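Grown in 96-well plates, cells were treated for 48 hours with each compound at five concentrations. Insufficient inhibition: endpoint recorded as highest concentration tested. Here, GI50 denotes the concentration required for 50% inhibition of growth. TGI: total growth inhibition.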

What was measured:
Test in all cases: NCI tumour cell line growth inhibition, 48 h
786-0 renal = tested on: 786-0 renal
A498 renal = tested on: A498 renal
A549 NSCLC = tested on: A549 NSCLC
ACHN renal = tested on: ACHN renal
BT-549 breast = tested on: BT-549 breast
CAKI-1 renal = tested on: CAKI-1 renal
CCRF-CEM leukemia = tested on: CCRF-CEM leukemia
COLO 205 colon = tested on: COLO 205 colon
DU-145 prostate = tested on: DU-145 prostate
EKVX NSCLC = tested on: EKVX NSCLC
HCC-2998 colon = tested on: HCC-2998 colon
HCT-116 colon = tested on: HCT-116 colon
HCT-15 colon = tested on: HCT-15 colon
HL-60(TB) leukemia = tested on: HL-60(TB) leukemia
HOP-62 NSCLC = tested on: HOP-62 NSCLC
HOP-92 NSCLC = tested on: HOP-92 NSCLC
HS 578T breast = tested on: HS 578T breast
HT29 colon = tested on: HT29 colon
IGROV1 ovarian = tested on: IGROV1 ovarian
K-562 leukemia = tested on: K-562 leukemia
KM12 colon = tested on: KM12 colon
LOX IMVI melanoma = tested on: LOX IMVI melanoma
M14 melanoma = tested on: M14 melanoma
MALME-3M melanoma = tested on: MALME-3M melanoma
MCF7 breast = tested on: MCF7 breast
MDA-MB-231 breast = tested on: MDA-MB-231 breast
MDA-MB-435 = tested on: MDA-MB-435
MDA-MB-468 breast = tested on: MDA-MB-468 breast
MOLT-4 leukemia = tested on: MOLT-4 leukemia
NCI-H226 lung = tested on: NCI-H226 lung

## CCN1CCN(c2ccc(NC(=O)Nc3ccc(-c4cc(C(=O)NC)c5ncccc5n4)cc3)cc2C(F)(F)F)CC1
786-0 renal
  GI50: 295 nM
  TGI: 583 nM
A498 renal
  GI50: 2740 nM
  TGI: 5310 nM
A549 NSCLC
  GI50: 466 nM
  TGI: 1300 nM
ACHN renal
  GI50: 2390 nM
  TGI: 4730 nM
BT-549 breast
  GI50: 2780 nM
  TGI: 5670 nM
CAKI-1 renal
  GI50: 3010 nM
  TGI: 5600 nM
CCRF-CEM leukemia
  GI50: 461 nM
  TGI: 1270 nM
COLO 205 colon
  GI50: 4150 nM
  TGI: 14200 nM
DU-145 prostate
  GI50: 2230 nM
  TGI: 4900 nM
EKVX NSCLC
  GI50: 2940 nM
  TGI: 5630 nM
HCC-2998 colon
  GI50: 2830 nM
  TGI: 5310 nM
HCT-116 colon
  GI50: 1120 nM
  TGI: 4830 nM
HCT-15 colon
  GI50: 333 nM
  TGI: 697 nM
HL-60(TB) leukemia
  GI50: 3420 nM
  TGI: > 18000 nM
HOP-62 NSCLC
  GI50: 2790 nM
  TGI: 5410 nM
HOP-92 NSCLC
  GI50: 2450 nM
  TGI: 5670 nM
HS 578T breast
  GI50: 2390 nM
  TGI: 6880 nM
HT29 colon
  GI50: 525 nM
  TGI: 2110 nM
IGROV1 ovarian
  GI50: 3010 nM
  TGI: 5610 nM
K-562 leukemia
  GI50: 657 nM
  TGI: > 18000 nM
KM12 colon
  GI50: 3250 nM
  TGI: 6650 nM
LOX IMVI melanoma
  GI50: 674 nM
  TGI: 2660 nM
M14 melanoma
  GI50: 400 nM
  TGI: 1050 nM
MALME-3M melanoma
  GI50: 286 nM
  TGI: 532 nM
MCF7 breast
  GI50: 293 nM
  TGI: 608 nM
MDA-MB-231 breast
  GI50: 2780 nM
  TGI: 5250 nM
MDA-MB-435
  GI50: 269 nM
  TGI: 564 nM
MDA-MB-468 breast
  GI50: 2480 nM
  TGI: 5030 nM
MOLT-4 leukemia
  GI50: 689 nM
  TGI: > 18000 nM
NCI-H226 lung
  GI50: 2700 nM
